Tests used:
Details in all cases: 72 h
HCC1599 [1] = tested on: HCC1599
Outline: (§1)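 After 72 h on 384-well plates pre-loaded with compound in 5 µl medium, breast cancer cell lines seeded in 20 µl were assayed for viability with 2.5 µl CellTiter-Blue at 37 °C for 2 h, read at 560/590 nm. Each plate was quality-checked by Z'-factor and normalised to vehicle and a positive kill control. EC50 comes from the fitted percent-inhibition dose-response curve, censored at the top concentration, and rows scoring zero for drug sensitivity were left out.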

MFM-223 [2] = tested on: MFM-223
Outline: as §1

SK-BR-3 = tested on: SK-BR-3
Outline: as §1

MDA-MB-468 [3] = tested on: MDA-MB-468
Outline: as §1

BT-474 [4] = tested on: BT-474
Outline: as §1

CAL-51 = tested on: CAL-51
Outline: as §1

MDA-MB-453 [5] = tested on: MDA-MB-453
Outline: as §1

CAL-148 [6] = tested on: CAL-148
Outline: as §1

CAL-148 [7] = tested on: CAL-148; remark: listed apart in the source
Outline: (§2)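 The plates used were 384-well plates holding compound at 5 concentrations in 10-fold steps across a compound-specific 10,000-fold range, into which breast cancer cell lines were seeded in 20 µl suspension. Following 72 h incubation, CellTox Green fluorescence was read at 485/520 nm, and CellTiter-Glo luminescence was read after 10 min at room temperature. Normalisation on each plate used 0.1 % DMSO and a positive kill control. Dose-response curves gave the EC50, which was censored at the top concentration.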

HCC1143 [8] = tested on: HCC1143
Outline: as §1

HCC1937 [9] = tested on: HCC1937
Outline: as §1

DU-4475 [10] = tested on: DU-4475
Outline: as §1

HCC1599 [11] = tested on: HCC1599; remark: listed apart in the source
Outline: as §2

Hs578T [12] = tested on: Hs578T
Outline: as §1

MFM-223 [13] = tested on: MFM-223; remark: listed apart in the source
Outline: as §2

Hs578T [14] = tested on: Hs578T; remark: listed apart in the source
Outline: as §2

DU-4475 [15] = tested on: DU-4475; remark: listed apart in the source
Outline: as §2

MDA-MB-453 [16] = tested on: MDA-MB-453; remark: listed apart in the source
Outline: as §2

CAL-85-1 [17] = tested on: CAL-85-1
Outline: as §2

HDQ-P1 [18] = tested on: HDQ-P1
Outline: as §2

MCF-10A = tested on: MCF-10A
Outline: as §2

CAL-120 [19] = tested on: CAL-120
Outline: as §2

MDA-MB-436 [20] = tested on: MDA-MB-436
Outline: as §2

HCC1143 [21] = tested on: HCC1143; remark: listed apart in the source
Outline: as §2

HCC1937 [22] = tested on: HCC1937; remark: listed apart in the source
Outline: as §2

MDA-MB-231 [23] = tested on: MDA-MB-231
Outline: as §2

MDA-MB-468 [24] = tested on: MDA-MB-468; remark: listed apart in the source
Outline: as §2

HCC1599 [25] = tested on: HCC1599; remark: listed apart in the source
Outline: as §2

BT-549 [26] = tested on: BT-549
Outline: as §2

BT-474 [27] = tested on: BT-474; remark: listed apart in the source
Outline: as §2

CAL-120 [28] = tested on: CAL-120; remark: listed apart in the source
Outline: as §1

MDA-MB-436 [29] = tested on: MDA-MB-436; remark: listed apart in the source
Outline: as §1

MDA-MB-231 [30] = tested on: MDA-MB-231; remark: listed apart in the source
Outline: as §1

BT-549 [31] = tested on: BT-549; remark: listed apart in the source
Outline: as §1

CAL-85-1 [32] = tested on: CAL-85-1; remark: listed apart in the source
Outline: as §1

HDQ-P1 [33] = tested on: HDQ-P1; remark: listed apart in the source
Outline: as §1

Question: With `O=C(O)CC[C@H]1CC[C@@](c2cc(F)ccc2F)(S(=O)(=O)c2ccc(Cl)cc2)CC1` [MK-0752] as the compound, how does the “EC50, CellTiter-Blue viability” value (HCC1599 [1]) read?
Answer: The value was 0.0702 µM.

Question: Which results are given for `NC1(c2ccc(-c3nc4ccn5c(=O)[nH]nc5c4cc3-c3ccccc3)cc2)CCC1` [MK-2206]?
Answer: EC50, CellTiter-Blue viability (MFM-223 [2]): 0.369 µM; EC50, CellTiter-Blue viability (SK-BR-3): 0.116 µM; EC50, CellTiter-Blue viability (MDA-MB-468 [3]): 0.131 µM; EC50, CellTiter-Blue viability (BT-474 [4]): 0.192 µM; EC50, CellTiter-Blue viability (CAL-51): 0.942 µM; EC50, CellTiter-Blue viability (MDA-MB-453 [5]): 0.436 µM; EC50, CellTiter-Blue viability (CAL-148 [6]): 0.79 µM; EC50, CellTox Green (CAL-148 [7]): 0.478 µM

Question: With `NC(=O)c1cccc2cn(-c3ccc([C@@H]4CCCNC4)cc3)nc12` [MK-4827] as the compound, how does the “EC50, CellTiter-Blue viability” value (HCC1143 [8]) read?
Answer: The value was 1.66 µM.

Question: And the “EC50, CellTiter-Blue viability” value (HCC1937 [9])?
Answer: Its value is 1.33 µM.

Question: What about the “EC50, CellTiter-Blue viability” value (CAL-51) of the same compound?
Answer: The value was 1.78 µM.

Question: And the “EC50, CellTiter-Blue viability” value (DU-4475 [10])?
Answer: Its value is 4.42 µM.

Question: And the “EC50, CellTiter-Blue viability” value (CAL-148 [6])?
Answer: The value was 2.33 µM.

Question: With `N[C@@H](Cc1ccc(N(CCCl)CCCl)cc1)C(=O)O` [Melphalan] as the compound, how does the “EC50, CellTiter-Glo” value (HCC1599 [11]) read?
Answer: The value was 0.467 µM.

Question: What about the “EC50, CellTiter-Blue viability” value (Hs578T [12]) of the same compound?
Answer: The value was 0.222 µM.

Question: What about the “EC50, CellTiter-Blue viability” value (HCC1937 [9]) of the same compound?
Answer: The value was 0.0855 µM.

Question: And the “EC50, CellTox Green” value (MFM-223 [13])?
Answer: The value was 0.514 µM.

Question: And the “EC50, CellTox Green” value (Hs578T [14])?
Answer: Its value is 1.11 µM.

Question: What about the “EC50, CellTox Green” value (DU-4475 [15]) of the same compound?
Answer: The value was 1.29 µM.

Question: And the “EC50, CellTox Green” value (MDA-MB-453 [16])?
Answer: Its value is 0.419 µM.

Question: And the “EC50, CellTox Green” value (CAL-85-1 [17])?
Answer: Its value is 0.392 µM.

Question: And the “EC50, CellTox Green” value (HDQ-P1 [18])?
Answer: The value was 0.363 µM.

Question: What about the “EC50, CellTox Green” value (MCF-10A) of the same compound?
Answer: Its value is 0.275 µM.

Question: And the “EC50, CellTox Green” value (CAL-120 [19])?
Answer: Its value is 1.79 µM.

Question: What about the “EC50, CellTox Green” value (MDA-MB-436 [20]) of the same compound?
Answer: The value was 2.3 µM.

Question: What about the “EC50, CellTox Green” value (CAL-148 [7]) of the same compound?
Answer: The value was 0.354 µM.

Question: What about the “EC50, CellTox Green” value (HCC1143 [21]) of the same compound?
Answer: The value was 2.91 µM.

Question: What about the “EC50, CellTox Green” value (HCC1937 [22]) of the same compound?
Answer: Its value is 0.613 µM.

Question: What about the “EC50, CellTox Green” value (MDA-MB-231 [23]) of the same compound?
Answer: Its value is 0.129 µM.

Question: And the “EC50, CellTox Green” value (MDA-MB-468 [24])?
Answer: Its value is 0.293 µM.

Question: What about the “EC50, CellTox Green” value (HCC1599 [25]) of the same compound?
Answer: Its value is 0.726 µM.

Question: And the “EC50, CellTox Green” value (BT-549 [26])?
Answer: The value was 0.778 µM.

Question: And the “EC50, CellTox Green” value (BT-474 [27])?
Answer: Its value is 0.347 µM.

Question: What does the source list for `O=C(c1cc(Cc2n[nH]c(=O)c3ccccc23)ccc1F)N1CCN(C(=O)C2CC2)CC1` [Olaparib]?
Answer: EC50, CellTiter-Blue viability (HCC1937 [9]): 0.116 µM; EC50, CellTiter-Blue viability (MDA-MB-468 [3]): 1.61 µM; EC50, CellTiter-Blue viability (CAL-51): 6.59 µM; EC50, CellTiter-Blue viability (DU-4475 [10]): 0.418 µM; EC50, CellTox Green (MDA-MB-436 [20]): 0.498 µM

Question: Which “EC50, CellTiter-Glo” value (HCC1599 [11]) does the source give for `CO[C@H](C(=O)[C@@H](O)[C@@H](C)O)[C@@H]1Cc2cc3cc(O[C@H]4C[C@@H](O[C@@H]5C[C@@H](O)[C@H](O)[C@@H](C)O5)[C@H](O)[C@@H](C)O4)c(C)c(O)c3c(O)c2C(=O)[C@H]1O[C@H]1C[C@@H](O[C@@H]2C[C@@H](O)[C@@H](O[C@@H]3C[C@](C)(O)[C@H](O)[C@@H](C)O3)[C@@H](C)O2)[C@H](O)[C@@H](C)O1` [Plicamycin] here?
Answer: The value was 4.45 µM.

Question: What about the “EC50, CellTiter-Blue viability” value (MFM-223 [2]) of the same compound?
Answer: Its value is 0.168 µM.

Question: What about the “EC50, CellTiter-Blue viability” value (Hs578T [12]) of the same compound?
Answer: The value was 0.0308 µM.

Question: What about the “EC50, CellTiter-Blue viability” value (SK-BR-3) of the same compound?
Answer: Its value is 0.0498 µM.

Question: What about the “EC50, CellTiter-Blue viability” value (CAL-120 [28]) of the same compound?
Answer: The value was 0.0471 µM.

Question: What about the “EC50, CellTiter-Blue viability” value (MDA-MB-436 [29]) of the same compound?
Answer: The value was 0.0255 µM.

Question: And the “EC50, CellTiter-Blue viability” value (HCC1143 [8])?
Answer: The value was 0.0269 µM.

Question: And the “EC50, CellTiter-Blue viability” value (HCC1937 [9])?
Answer: Its value is 0.0372 µM.

Question: And the “EC50, CellTiter-Blue viability” value (MDA-MB-231 [30])?
Answer: The value was 0.0416 µM.

Question: What about the “EC50, CellTiter-Blue viability” value (MDA-MB-468 [3]) of the same compound?
Answer: The value was 0.0281 µM.

Question: What about the “EC50, CellTiter-Blue viability” value (HCC1599 [1]) of the same compound?
Answer: The value was 0.105 µM.

Question: What about the “EC50, CellTiter-Blue viability” value (BT-549 [31]) of the same compound?
Answer: The value was 0.0336 µM.

Question: And the “EC50, CellTiter-Blue viability” value (BT-474 [4])?
Answer: Its value is 0.123 µM.

Question: What about the “EC50, CellTiter-Blue viability” value (CAL-51) of the same compound?
Answer: Its value is 0.124 µM.

Question: What about the “EC50, CellTiter-Blue viability” value (DU-4475 [10]) of the same compound?
Answer: Its value is 0.0488 µM.

Question: And the “EC50, CellTiter-Blue viability” value (MDA-MB-453 [5])?
Answer: The value was 0.082 µM.

Question: What about the “EC50, CellTiter-Blue viability” value (CAL-85-1 [32]) of the same compound?
Answer: Its value is 0.0837 µM.

Question: And the “EC50, CellTiter-Blue viability” value (HDQ-P1 [33])?
Answer: The value was 0.0845 µM.

Question: What about the “EC50, CellTiter-Blue viability” value (CAL-148 [6]) of the same compound?
Answer: Its value is 0.0736 µM.

Question: And the “EC50, CellTox Green” value (Hs578T [14])?
Answer: The value was 6.42 µM.

Question: And the “EC50, CellTox Green” value (MDA-MB-453 [16])?
Answer: Its value is 7.42 µM.

Question: What about the “EC50, CellTox Green” value (CAL-85-1 [17]) of the same compound?
Answer: The value was 8.29 µM.

Question: And the “EC50, CellTox Green” value (MCF-10A)?
Answer: Its value is 2.85 µM.

Question: And the “EC50, CellTox Green” value (MDA-MB-468 [24])?
Answer: The value was 0.39 µM.

Source: the supplement of paper PMC4862054
